This is an account of results in patent publication US20050096370A1, “Method for inhibiting tumor angiogenesis and tumor growth” (Bizbiotech Co., Ltd., priority 2003, published 2005).

The subject of assay [1] is natural killer (NK) cell activity. Kind of assay: NK cell activity of splenic lymphocytes incubated with YC-1 in vitro (51Cr release from YAC-1 cells). The following applies: 24 hours. In kind it is cell-based, nude mice. On the procedure:
The lymphocytes were then incubated at the indicated effectontarget cell (E:T) ratios with ^51Cr-labeled YAC-1 cells (1×10^4). After 4 hours, the amount of radioactivity in the culture supernatants was measured with a gamma counter. […] Splenic lymphocytes were then isolated and tested for NK cell activity. The result is expressed as the mean of four separate experiments with 95% confidence intervals.
The quality of the extracted RNAs was verified by identifying the 18S ribosomal RNA (rRNA) on a 1% denaturing agarose gel. VEGF, aldolase A and enolase 1 mRNA levels were also lower in YC-1-treated tumors than in vehicle-treated tumors one experiment. Results are expressed as the mean and 95% confidence intervals of 4 separate experiments.
Splenic lymphocytes were isolated from each mouse and tested immediately for NK cell activity. The spontaneous release of ^51Cr from YAC-1 cells was usually lower than 10% of the total ^51Cr loaded. NK cell activity was calculated as follows: {(experimental release−spontaneous release)/(total release−spontaneous release)}×100. Each assay was repeated three times and the average value is the result from one experiment. Results are expressed as the mean and 95% confidence intervals of 4 separate experiments.

The test system of assay [2] is human cancer xenografts (Hep3B, NCI-H87, SiHa, SK-N-MC, Caki-1). Kind of assay: counts of HIF-1α-positive cells and CD31-positive vessels in xenograft tumor sections. Conditions: regardless of cell origin, treated 2 weeks, P<0.01. In kind it is in vivo, nude mice. On the procedure:
FIG. 10 is a histogram showing HIF-1α expression detected by immunohistochemistry in human cancer xenografts derived from Hep3B hepatoma, NCI-H87 gastric carcinoma, SiHa cervical carcinoma, SK-N-MC neuroblastoma, or Caki-1 renal carcinoma cells. Male nude mice were injected subcutaneously in the flank with 5×10^6 viable tumor cells. […] After the last treatment, the mice were euthanized, the tumors removed, fixed with formalin, embedded in paraffin and processed for hinmunohistochemistry to detect HIF-1α-positive cells. […] Each bar represents the mean with lower or upper 95% confidence interval. Differences between treatment groups were compared using a Mann-Whitney U test. […]
FIG. 11 is a histogram showing vascular density detected by immunohistochemistry in human cancer xenografts derived from Hep3B hepatoma, NCI-H87 gastric carcinoma, SiHa cervical carcinoma, SK-N-MC neuroblastoma, or Caki-1 renal carcinoma cells. […]
We further quantified the numbers of HIF-1α-positive cells and CD31-positive vessels in tumor sections from vehicle- and YC-1-treated mice. […] The expression of HIF-1α and the vessel density were measured by counting the numbers of immunopositive cells and vessel profiles (identified by CD31 staining) per mm^2 under microscopic images. We analyzed ten or more different lesions per xenograft tumor.

The test system of a further assay is Hep3B hepatoma tumors. The experiment in a line: histology and immunohistochemistry (H&E, CD31, HIF-1α) of Hep3B xenograft tumors. In kind it is in vivo, nude mice. The following applies: 30 μg/g daily i.p. 2 weeks. On the procedure: FIG. 7 is a picture showing histopathology for Hep3B hepatoma tumors grown in nude mice. Male nude mice were injected subcutaneously in the flank with 5×10^6 viable Hep3B cells. […] After the last treatment, the mice were euthanized, the tumors removed, fixed with formalin, and embedded in paraffin. Tumor sections were cut from the paraffin blocks and stained with hernatoxylin and eosin. v, vessel; a, acinus. Scale bar=50 μm.
FIG. 8 is a picture showing vascular distribution in Hep3B hepatoma tumors grown in nude mice. Male nude mice were injected subcutaneously in the flank with 5×10^6 viable Hep3B cells. […] After the last treatment, the mice were euthanized, the tumors removed, fixed with formalin, and embedded in paraffin. Tumor sections were cut from the paraffin blocks and processed for immunohistochemical staining to detect endothelial cells with an anti-CD31 antibody. The immunostained sections were developed using the avidinbiotin-horseradish peroxidase method with diaminobenzidine as the chromagen. The sections were lightly counterstained with hematoxylin. Arrows indicate CD31-positive vessels. Scale bar=50 μm.
FIG. 9 is a picture showing expression and distribution of HIF-1α in Hep3B hepatoma tumors grown in nude mice. Male nude mice were injected subcutaneously in the flank with 5×10^6 viable Hep3B cells. […] After the last treatment, the mice were euthanized, the tumors removed, fixed with formalin, and embedded in paraffin. Tumor sections were cut from the paraffin blocks and processed for immunohistochemical staining to detect HIF-1α with an anti-HIF-1α antibody. The immunostained sections were developed using the avidin-biotin-horseradish peroxidase method with diaminobenzidine as the chromagen. The sections were lightly counterstained with hematoxylin. Arrows indicate HIF-1α positive cells. nu, nuclear staining; pn, perinuclear staining. Scale bar=50 μm. […]
Because HIF-1 is important in angiogenesis, we next assessed HIF-1α expression in tumor sections from vehicle- and YC-1-treated mice (FIG. 9).

The next assay deals with VEGF. Kind of assay: VEGF mRNA RT-PCR in NCI-H87, SiHa, SK-N-MC and Caki-1 cells under hypoxia. In kind it is cell-based, human. Conditions: Caki-1 cells, hypoxic, 16 hours. On the procedure:
FIG. 5 is an autoradiograph showing mRNA levels of VEGF and β-actin in cancer cells of different origin.
Levels of HIF-1α and β-actin proteins were analyzed by immunoblot analysis using a rabbit anti-HIF-1α antibody or a rabbit anti-p-actin antibody. Proteins were visualized by enhanced chemiluminescence.

Turning to `OCc1ccc(-c2nn(Cc3ccccc3)c3ccccc23)o1` [YC-1, 3-(5′-hydroxymethyl-2′-furyl)-1-benzylindazole], the “cytolytic activity against YAC-1 cells versus lymphocytes incubated without YC-1” value in assay [1] is recorded as “comparable”. Further, in assay [2], the “blood vessel formation (CD31 vessel profiles per mm^2)” value was “statistically significantly inhibited” and the “expression of HIF-1α protein (immunopositive cells per mm^2)” value was “statistically significantly inhibited”. In the assay on Hep3B hepatoma tumors, the “CD31-immunopositive vessels in tumor sections” value is given as “Few CD31-immunopositive vessels”, the “HIF-1α immunoreactive cells in tumor sections” value is “no HIF-1α inimunoreactive cells” and the “hematoxylin-eosin histology of tumor sections” value is on record as “frequent acinus formation without well-developed blood vessels”. Further, the “level of VEGF mRNA” value in the assay with VEGF is given as “dose-dependently inhibited”.
